#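 All cell lines were grown in 96-well plates and treated with compound for 48 hours. Definition used: TGI = concentration required for complete inhibition of growth.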
# Experiments:
# Assay in all cases: NCI tumour cell line growth inhibition, 48 h
# CCRF-CEM leukemia = test system: CCRF-CEM leukemia
# BT-549 breast = test system: BT-549 breast
# NCI-H226 lung = test system: NCI-H226 lung
# RXF 393 renal = test system: RXF 393 renal
# SF-539 CNS = test system: SF-539 CNS
# HCC-2998 colon = test system: HCC-2998 colon
# COLO 205 colon = test system: COLO 205 colon
# RPMI-8226 leukemia = test system: RPMI-8226 leukemia
# MDA-MB-435 = test system: MDA-MB-435
# UO-31 renal = test system: UO-31 renal
SMILES,TGI (CCRF-CEM leukemia),TGI (BT-549 breast),TGI (NCI-H226 lung),TGI (RXF 393 renal),TGI (SF-539 CNS),TGI (HCC-2998 colon),TGI (COLO 205 colon),TGI (RPMI-8226 leukemia),TGI (MDA-MB-435),TGI (UO-31 renal)
CCC/C(Cl)=N\OC(=O)Nc1ccc(OC(F)(F)F)cc1,> 26.7 µM,56.6 µM,34.5 µM,31.2 µM,33.3 µM,38.6 µM,3.54 µM,4.43 µM,49.9 µM,23.3 µM
C#C[C@]1(O)CC[C@H]2[C@@H]3CCC4=C/C(=N/OC(=O)c5cccc6c(=O)c7ccccc7[nH]c56)CC[C@@H]4[C@H]3CC[C@@]21C,39.1 µM,> 100 µM,> 100 µM,> 100 µM,> 100 µM,> 100 µM,77.1 µM,54 µM,> 100 µM,> 100 µM
CCOC(=O)NC(Nc1cccc(C(F)(F)F)c1)(C(F)(F)F)C(F)(F)F,> 100 µM,> 100 µM,> 100 µM,> 100 µM,> 100 µM,> 100 µM,> 100 µM,> 100 µM,> 100 µM,> 100 µM
O=c1oc2ccc([N+](=O)[O-])cc2c(Nc2ccc3c(c2)Oc2ccccc2O3)c1[N+](=O)[O-],84.7 µM,> 100 µM,87.1 µM,> 100 µM,61.1 µM,66.4 µM,40.2 µM,70.2 µM,> 100 µM,> 100 µM
CC(=O)[C@@]1(O)CC[C@H]2[C@@H]3C[C@H](C)C4=CC(=O)C=C[C@]4(C)[C@@]3(F)[C@@H](O)C[C@@]21C,> 100 µM,> 100 µM,> 100 µM,> 100 µM,> 100 µM,> 100 µM,> 100 µM,> 100 µM,> 100 µM,> 100 µM
CCC1(C)C=Cc2c(cc(O)c3c(=O)c4ccccc4n(C)c23)O1 (stereo not given),> 10 µM,> 10 µM,> 10 µM,> 10 µM,> 10 µM,> 10 µM,> 10 µM,> 10 µM,> 10 µM,> 10 µM
CC(=O)OCC1OC(n2c3c(cc(C#N)c2=S)CCCCC3)C(OC(C)=O)C(OC(C)=O)C1OC(C)=O (stereo not given),> 100 µM,> 100 µM,> 100 µM,> 100 µM,> 100 µM,> 100 µM,> 100 µM,> 100 µM,> 100 µM,> 100 µM
CC(C)(C)OC(=O)NCCCNC1(c2cc3ccccc3s2)CCCCC1,40.3 µM,27 µM,46.1 µM,29.8 µM,34.2 µM,14.3 µM,27.8 µM,13.7 µM,28.7 µM,25.4 µM
CC(C)=CCNc1ncnc2c1ncn2CCC#N,> 100 µM,> 100 µM,> 100 µM,> 100 µM,> 100 µM,> 100 µM,> 100 µM,> 100 µM,> 100 µM,> 100 µM
O=[N+]([O-])/C(C(Cl)=C(Cl)Cl)=C(\N1CCCCC1)n1cncn1,> 100 µM,31.6 µM,40.3 µM,24.2 µM,31.4 µM,40.5 µM,30.3 µM,57.2 µM,36.3 µM,30.8 µM
COc1ccc(NS(=O)(=O)c2ccc(NC(NC(=O)CC(C)C)(C(F)(F)F)C(F)(F)F)cc2)nn1,> 100 µM,> 100 µM,> 100 µM,> 100 µM,> 100 µM,> 100 µM,> 100 µM,> 100 µM,> 100 µM,> 100 µM
COc1ccc(/C=C2\N=C(SC)NC2=O)cc1,> 100 µM,> 100 µM,> 100 µM,> 100 µM,> 100 µM,> 100 µM,> 100 µM,> 100 µM,> 100 µM,45.3 µM
C=CCOc1ccc(C2C(C(=O)OCC)C(=O)CC(C)(O)C2C(=O)OCC)cc1OC (stereo not given),> 100 µM,> 100 µM,> 100 µM,> 100 µM,> 100 µM,> 100 µM,> 100 µM,> 100 µM,> 100 µM,> 100 µM
CC(=O)O[C@H]1CC[C@@]2(C)C(=CC[C@H]3[C@@H]4C[C@H](N5CCOCC5)[C@H](OC(C)=O)[C@@]4(C)CC[C@@H]32)C1,> 100 µM,> 100 µM,> 100 µM,> 100 µM,> 100 µM,> 100 µM,> 100 µM,> 100 µM,> 100 µM,> 100 µM
CC12CCC(O)CC1CCC1C2CCC2(C)C(C(=O)CC(O)C(F)(F)F)CCC12 (stereo not given),> 93.1 µM,> 100 µM,> 100 µM,29.3 µM,> 92.9 µM,80 µM,33.1 µM,26.6 µM,> 100 µM,11.1 µM
O=C1c2cccnc2-c2nccc3c2c1nc1cc(Br)ccc13,0.465 µM,1.23 µM,0.855 µM,0.355 µM,0.709 µM,1.63 µM,2.12 µM,0.448 µM,0.607 µM,0.568 µM
CCOC(=O)C1C2CCC1CC(=NNc1ccc([N+](=O)[O-])cc1[N+](=O)[O-])C2 (stereo not given),> 50 µM,> 50 µM,> 50 µM,> 50 µM,> 50 µM,> 50 µM,> 50 µM,> 50 µM,> 50 µM,> 50 µM

# Reference: PubChem BioAssay (NCI)
